For this experiment, the target named is T1, recombinant human G9a protein (Homo sapiens, UniProt Q96KQ7).
T1 construct: purchased BPS Bioscience Inc. #51001
T1 sequence (Q96KQ7 785-1210 limits assumed): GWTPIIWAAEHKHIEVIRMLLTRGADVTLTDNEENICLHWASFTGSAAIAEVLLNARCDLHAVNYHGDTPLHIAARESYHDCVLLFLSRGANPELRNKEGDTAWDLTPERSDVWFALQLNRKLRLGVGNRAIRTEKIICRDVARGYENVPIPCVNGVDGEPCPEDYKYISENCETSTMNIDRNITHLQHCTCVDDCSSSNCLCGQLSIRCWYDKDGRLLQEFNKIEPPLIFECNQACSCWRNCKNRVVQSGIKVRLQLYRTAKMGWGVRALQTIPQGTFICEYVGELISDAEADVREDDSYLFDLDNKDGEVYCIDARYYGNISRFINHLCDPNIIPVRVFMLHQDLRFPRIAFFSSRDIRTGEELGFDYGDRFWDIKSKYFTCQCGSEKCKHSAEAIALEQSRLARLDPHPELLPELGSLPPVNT
Description: G9a inhibitory activity test (ALPHA). The experiment is classed as biochemical. Summed up: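 Human G9a (0.05 to 0.1 nM) in Tris pH 9.0 buffer preincubated with compound 10 min, then biotinylated histone H3 (1-21) peptide and SAM mixed 1:1 from 500 nM and 150 μM solutions, 1 h at room temperature. H3K9me2 detected by AlphaLISA acceptor/streptavidin donor beads; IC50 from percent inhibition relative to no-compound and no-enzyme controls.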

The mark [1] stands for this setting: read-out: Inhibitory activity (G9a IC50).
Setting [2] is: biotinylated histone H3 peptide (1-21), SAM, read-out: Inhibitory activity (G9a IC50 value).

Data on 49 compounds can be found in patent US20230127046A1, “G9a INHIBITOR” (RIKEN, priority 2019, published 2023).

Where two headings read alike, the source gives them in different places.

For orientation: IC50 means the midpoint of a concentration-inhibition curve. For `Cc1c(C(=O)NC(CCC2CC2)c2nc3cccc(CN(C)C)c3n2C)[nH]c2c1C(=O)CC(C)(C)C2` (stereo not shown) [Example 31-1, N-[3-cyclopropyl-1-[7-[(dimethylamino)methyl]-1-methylbenzoimidazol-2-yl]propyl]-3,6,6-trimethyl-4-oxo-5,7-dihydro-1H-indole-2-carboxamide], the IC50 under setting [1] was not below 0.2 µM. Turning to `CCc1c(C(=O)NC(CCC2CC2)C(=O)N2CCc3c(OCCN(C)C)cccc32)[nH]c2c1C(=O)CC(C)(C)C2` (stereo not shown) [Example 1-141], under setting [1], the IC50 lay within 0.05 to 0.2 µM.

Take `CCCC[C@H](NC(=O)c1[nH]c2c(c1C)C(=O)CC(C)(C)C2)C(=O)NCc1ccc(N2CCN(CC(C)C)CC2)cc1` [Example 22-1]: the IC50 under setting [1] was not below 0.2 µM. For `CCCC[C@H](NC(=O)c1[nH]c2c(c1C)C(=O)CC(C)(C)C2)c1nc2ccc(OCCO)cc2[nH]1` [Example 36, (S)-N-(1-(6-(2-hydroxyethoxy)-1H-benzo[d]imidazol-2-yl)pentyl)-3,6,6-trimethyl-4-oxo-4,5,6,7-tetrahydro-1H-indole-2-carboxamide], under setting [1], the IC50 is not below 0.2 µM. For the compound `COc1ccc(NC(=O)C(CCC2CC2)NC(=O)c2ccc(Nc3ccncc3)cc2C(F)(F)F)cn1` (stereo not shown) [Example 6-78], the IC50 under setting [1] is less than 0.05 µM. On to `CCCC[C@H](NC(=O)c1[nH]c2c(c1C)C(=O)CC(C)(C)C2)C(=O)NCc1ccc(N2CCN(CC)CC2)cc1` [Example 22-3], for which the IC50 under setting [1] is not below 0.2 µM. For `CCCCC(NC(=O)c1sc(-c2ccccc2)nc1C)C(=O)Nc1ccc(OC2CCN(C)CC2)nc1` (stereo not shown) [Example 11-10], under setting [1], the IC50 is not below 0.2 µM. For the compound `Cc1c(C(=O)NC(CCC(C)C)C(=O)Nc2ccccc2)[nH]c2c1C(=O)CC(C)(C)C2` (stereo not shown) [Example 6-25], the IC50 under setting [1] was not below 0.2 µM.

For the compound `Cc1c(C(=O)N[C@@H](CCC2CC2)C(=O)N[C@@H](C)c2ccccc2)[nH]c2c1C(=O)CC(C)(C)C2` [Example 13-1, N-((S)-4-cyclopropyl-1-oxo-1-(((S)-1-phenylethyl)amino)butan-2-yl)-3,6,6-trimethyl-4-oxo-4,5,6,7-tetrahydro-1H-indole-2-carboxamide], the IC50 under setting [1] is less than 0.05 µM. With `CCCCC(NC(=O)c1[nH]c2c(c1C)C(=O)CC(C)(C)C2)C(=O)NCc1ccc(OC)cc1` (stereo not shown) [Example 1-46], the IC50 under setting [2] is not below 0.2 µM.

Consider `COc1ccc(NC(=O)C(CCC2CC2)NC(=O)c2[nH]c3c(c2C)C(=O)CC(C)(C)C3)cc1` (stereo not shown) [Example 1-63], for which the IC50 under setting [2] is 0.05 to 0.2 µM. On the same count and under the same terms, as for `CCCC[C@H](NC(=O)c1[nH]c2c(c1C)C(=O)CC(C)(C)C2)C(=O)Nc1ccccc1OC` [Example 1-33], the figure is not below 0.2 µM; as for `Cc1ccc(NC(=O)C(CCC2CC2)NC(=O)c2[nH]c3c(c2C)C(=O)CC(C)(C)C3)cc1` (stereo not shown) [Example 1-61], 0.05 to 0.2 µM; as for `CCCCC(NC(=O)c1[nH]c2c(c1C)C(=O)CC(C)(C)C2)C(=O)Nc1cccnc1C` (stereo not shown) [Example 1-107], not below 0.2 µM. On to `CCCCC(NC(=O)c1[nH]c2ccc(OC)cc2c1C)C(=O)Nc1ccc(OC2CCN(C)CC2)nc1` (stereo not shown) [Example 6-93], for which the IC50 under setting [1] is not below 0.2 µM. `CCCC[C@H](NC(=O)c1[nH]c2c(c1C)C(=O)CC(C)(C)C2)C(=O)NCc1ccc(N2CCNCC2)cc1` [Example 26-8]: the IC50 under setting [1] was less than 0.05 µM. Turning to `CCCCC(NC(=O)c1[nH]c2c(c1C)C(=O)CC(C)(C)C2)C(=O)NC1(c2ccccc2)CC1` (stereo not shown) [Example 1-53], the IC50 under setting [2] fell in the range of 0.05 to 0.2 µM. Turning to `CCCC[C@H](NC(=O)c1[nH]c2c(c1C)C(=O)CC(C)(C)C2)C(=O)NCc1ccc(N2CCN(CCC)CC2)cc1` [Example 22-4], under setting [1], the IC50 is not below 0.2 µM.

In the case of `Cc1c(C(=O)NC(CCC2CC2)C(=O)Nc2ccc(OC3CCN(C)CC3)cc2)[nH]c2c1C(=O)CC(C)(C)C2` (stereo not shown) [Example 1-85], the IC50 under setting [2] was less than 0.05 µM. Turning to `CCCCC(NC(=O)c1[nH]c2c(c1C)C(=O)CC(C)(C)C2)C(=O)Nc1ccc(F)cc1` (stereo not shown) [Example 1-26], under setting [2], the IC50 is not below 0.2 µM. `Cc1c(C(=O)NC(CCC2CC2)C(=O)N2CCc3c(OCCN(C)C)cccc32)[nH]c2c1C(=O)CC(C)(C)C2` (stereo not shown) [Example 1-122]: under setting [1], the concentration for half-maximal inhibition (IC50) was in the range of 0.05 to 0.2 µM. With `COc1ccc(NC(=O)C(CCC2CC2)NC(=O)c2ccc(Nc3ccnc(OC)c3)cc2)cn1` (stereo not shown) [Example 6-64], the IC50 under setting [1] is not below 0.2 µM. The same measure, in the same setting: as for `Cc1c(C(=O)NC(CCC2CC2)C(=O)N2CCc3cc(CN4CCCC4)ccc32)[nH]c2c1C(=O)CC(C)(C)C2` (stereo not shown) [Example 1-127], the figure is 0.05 to 0.2 µM; as for `Cc1c(C(=O)NC(CCC2CC2)C(=O)N2CCc3cc(OCCN4CCCCC4)ccc32)[nH]c2c1C(=O)CC(C)(C)C2` (stereo not shown) [Example 1-135], 0.05 to 0.2 µM. Consider `CCCCC(NC(=O)c1ccc(Nc2ccccc2)cc1C)C(=O)Nc1ccc(OC2CCN(C)CC2)nc1` (stereo not shown) [Example 11-6], for which the IC50 under setting [1] is not below 0.2 µM. Regarding `CCCCC(NC(=O)c1[nH]c2c(c1C)C(=O)CC(C)(C)C2)C(=O)NCc1ccc(C(=O)OC)cc1` (stereo not shown) [Example 6-21], under setting [1], the IC50 was not below 0.2 µM.

In the case of `CCCCC(NC(=O)c1[nH]c2c(c1C)C(=O)CC(C)(C)C2)C(=O)Nc1ccc2cn[nH]c2c1` (stereo not shown) [Example 1-101], under setting [2], the IC50 was not below 0.2 µM. Take `Cc1c(C(=O)NC(CCC2CC2)c2nc3cc(CN(C)C)ccc3n2C)[nH]c2c1C(=O)CC(C)(C)C2` (stereo not shown) [Example 32, N-[3-cyclopropyl-1-[5-[(dimethylamino)methyl]-1-methylbenzoimidazol-2-yl]propyl]-3,6,6-trimethyl-4-oxo-5,7-dihydro-1H-indole-2-carboxamide]: the IC50 under setting [1] is not below 0.2 µM. Regarding `COc1ccc(NC(=O)C(CCC2CC2)NC(=O)c2ccc(Nc3ccncc3)nc2)cn1` (stereo not shown) [Example 6-56], under setting [1], the IC50 was not below 0.2 µM. Consider `CCCC[C@H](NC(=O)c1[nH]c2c(c1C)C(=O)CC(C)(C)C2)C(=O)N1CCc2c(OCC3CCN(C)CC3)cccc21` [Example 6-105], for which, under setting [1], the IC50 was not below 0.2 µM. On the same count and under the same terms, as for `CN(C)c1ccc(NC(=O)C(CCC2CC2)NC(=O)c2ccc(Nc3ccncc3)cc2)cn1` (stereo not shown) [Example 6-85], the figure is less than 0.05 µM; as for `CCCCC(NC(=O)c1[nH]c2c(c1C)C(=O)CC(C)(C)C2)C(=O)N[C@@H](CO)c1ccccc1` (stereo partly drawn) [Example 3-1, N-(1-(((R)-2-hydroxy-1-phenylethyl)amino)-1-oxohexan-2-yl)-3,6,6-trimethyl-4-oxo-4,5,6,7-tetrahydro-1H-indole-2-carboxamide], 0.05 to 0.2 µM.

Consider `CC(C)c1c(C(=O)NC(CCC2CC2)C(=O)N2CCc3c(OCCN(C)C)cccc32)[nH]c2c1C(=O)CC(C)(C)C2` (stereo not shown) [Example 1-142], for which the IC50 under setting [1] lay within 0.05 to 0.2 µM. On to `CN1CCC(Oc2ccc(NC(=O)C(CCC3CC3)NC(=O)c3ccc(Nc4ccncc4)cc3)cn2)CC1` (stereo not shown) [Example 6-87], for which the IC50 under setting [1] is less than 0.05 µM. Take `CCCCC(NC(=O)c1[nH]c2c(c1C)C(=O)CC(C)(C)C2)C(=O)Nc1cccc2ccccc12` (stereo not shown) [Example 1-31]: the IC50 under setting [2] is not below 0.2 µM. On to `CCCC[C@H](NC(=O)c1[nH]c2c(c1C)C(=O)CC(C)(C)C2)C(=O)N1CCc2c(OCCN3CCCC3)cccc21` [Example 6-103], for which the IC50 under setting [1] is not below 0.2 µM. For `Cc1c(C(=O)NC(CCC2CC2)C(=O)N2CCc3c(CN4CCCCC4)cccc32)[nH]c2c1C(=O)CC(C)(C)C2` (stereo not shown) [Example 1-128], the IC50 under setting [1] was less than 0.05 µM.

On to `Cc1c(C(=O)NC(CCC2CC2)c2nc3cc(CO)ccc3n2C)[nH]c2c1C(=O)CC(C)(C)C2` (stereo not shown) [Example 33, N-[3-cyclopropyl-1-[5-(hydroxymethyl)-1-methylbenzoimidazol-2-yl]propyl]-3,6,6-trimethyl-4-oxo-5,7-dihydro-1H-indole-2-carboxamide], for which the IC50 under setting [1] is not below 0.2 µM. The same measure, in the same setting: as for `CCCC[C@H](NC(=O)c1[nH]c2c(c1C)C(=O)CC(C)(C)C2)C(=O)N1CCc2c(OCCN(C)C)cccc21` [Example 6-102], the figure is not below 0.2 µM.

As to `Cc1c(C(=O)NC(CCC2CC2)C(=O)Nc2ccc(C#N)nc2)[nH]c2c1C(=O)CC(C)(C)C2` (stereo not shown) [Example 6-13], the IC50 under setting [1] was not below 0.2 µM. Still for that read-out and setting: as for `CCCCC(NC(=O)Cc1ccccc1C)C(=O)Nc1ccc(OC2CCN(C)CC2)nc1` (stereo not shown) [Example 11-7], the figure is not below 0.2 µM. `CCCCC(NC(=O)c1[nH]c2c(c1C)C(=O)CC(C)(C)C2)C(=O)Nc1ccc2[nH]cc(CN(C)C)c2c1` (stereo not shown) [Example 1-100]: under setting [2], the IC50 is less than 0.05 µM. As for `Cc1c(C(=O)NC(CCC2CC2)C(=O)N(C)Cc2ccccc2)[nH]c2c1C(=O)CC(C)(C)C2` (stereo not shown) [Example 6-19], the IC50 under setting [1] was not below 0.2 µM. For `Cc1c(C(=O)NC(CCC2CC2)c2nc3c(CN(C)C4CCN(C)CC4)cccc3n2C)[nH]c2c1C(=O)CC(C)(C)C2` (stereo not shown) [Example 31-7], under setting [1], the IC50 was not below 0.2 µM. As to `CCCC[C@H](NC(=O)c1[nH]c2c(c1C)C(=O)CC(C)(C)C2)C(=O)NCc1ccc(N2CCN(CCCC)CC2)cc1` [Example 22-5], the IC50 under setting [1] was 0.05 to 0.2 µM.

On to `CCCCC(NC(=O)Cc1ccccc1)C(=O)Nc1ccc(OC2COC2)nc1` (stereo not shown) [Example 10, N-[6-(oxetan-3-yloxy)pyridin-3-yl]-2-[(2-phenylacetyl)amino]hexaneamide], for which the IC50 under setting [1] was in the range of 0.05 to 0.2 µM. For the compound `O=C(NC(CCC1CC1)C(=O)Nc1ccc(O)nc1)c1ccc(Nc2ccncc2)cc1` (stereo not shown) [Example 1-89], the IC50 under setting [2] is less than 0.05 µM. Take `CCCCC(NC(=O)c1[nH]c2c(c1C)C(=O)CC(C)(C)C2)C(=O)NC1CCN(CCCN2CCCC2)CC1` (stereo not shown) [Example 1-56]: the IC50 under setting [2] was not below 0.2 µM. Turning to `CCCCC(NC(=O)c1[nH]c2c(c1C)C(=O)CC(C)(C)C2)C(=O)NCc1ccccc1O` (stereo not shown) [Example 1-29], under setting [2], the IC50 is not below 0.2 µM.
